According to patent US11352340B2, “Pyridine and pyridimine compounds as PI3K-gamma inhibitors” (Incyte Corporation, priority 2016, dated 2022):
Structures can show the parent of a compound that is named as a salt.

Columns and labels:
[1] = tested on: Phosphorylated Ribosomal Protein S6 (RPS6) in THP-1 cells; assay: THP-1 RPS6 ELISA Assay; format: cell-based, Human; conditions: Homo sapiens, MCP-1 stimulated, phospho-RPS6 ELISA, read-out: THP p-RPS6 ELISA IC50
Description: Example A. THP-1 RPS6 ELISA Assay
To measure the Phosphorylated Ribosomal Protein S6 (RPS6) in cell lysates, THP-1 cells (Human Acute Monocytic Leukemia) are purchased from ATCC (Manassas, Va.) and maintained in RPMI with 10% FBS (Gibco/Life Technologies, Carlsbad, Calif.). For the assay, THP-1 cells are serum starved overnight in RPMI, then plated in RPMI (2×10^5 cells/well in 90 μL) into 96-well flat-bottom tissue culture treated plates (Corning, Corning, N.Y.), in the presence or absence of a concentration range of test compounds. Covered plates are incubated for 2 hours at 37° C., 5% CO2 then treated with or without 10 nM MCP-1 (MYBioSource, San Diego, Calif.) for 15 minutes at 37° C., 5% CO2. Plates are centrifuged at 1600 RPM and supernatants are removed. Cells are lysed in Lysis Buffer (Cell Signaling, Danvers, Mass.) with Protease Inhibitor (Calbiochem/EMD, Germany), PMSF (Sigma, St Louis Mo.), HALTS (Thermo Fisher, Rockford, Ill.) for 30 min on wet ice. Cell lysates are frozen at −80° C. before testing. The lysates are tested in the Human/Mouse/Rat Phospho-RPS6 ELISA (R&D Systems, Inc. Minn, Minn.). The plate is measured using a microplate reader (SpectraMax M5—Molecular Devices, LLC Sunnyvale, Calif.) set to 450 nm with a wavelength correction of 540. IC50 determination is performed by fitting the curve of inhibitor percent inhibition versus the log of the inhibitor concentration using the GraphPad Prism 5.0 software.

[2] = target: PI3Kγ (p110γ) Recombinant Human Protein (Homo sapiens (Human), UniProt P48736); assay: PI3K-γ Scintillation Proximity Assay; format: biochemical; conditions: read-out: PI3K-gamma SPA IC50
Sequence of PI3Kγ (p110γ) Recombinant Human Protein (P48736 whole entry): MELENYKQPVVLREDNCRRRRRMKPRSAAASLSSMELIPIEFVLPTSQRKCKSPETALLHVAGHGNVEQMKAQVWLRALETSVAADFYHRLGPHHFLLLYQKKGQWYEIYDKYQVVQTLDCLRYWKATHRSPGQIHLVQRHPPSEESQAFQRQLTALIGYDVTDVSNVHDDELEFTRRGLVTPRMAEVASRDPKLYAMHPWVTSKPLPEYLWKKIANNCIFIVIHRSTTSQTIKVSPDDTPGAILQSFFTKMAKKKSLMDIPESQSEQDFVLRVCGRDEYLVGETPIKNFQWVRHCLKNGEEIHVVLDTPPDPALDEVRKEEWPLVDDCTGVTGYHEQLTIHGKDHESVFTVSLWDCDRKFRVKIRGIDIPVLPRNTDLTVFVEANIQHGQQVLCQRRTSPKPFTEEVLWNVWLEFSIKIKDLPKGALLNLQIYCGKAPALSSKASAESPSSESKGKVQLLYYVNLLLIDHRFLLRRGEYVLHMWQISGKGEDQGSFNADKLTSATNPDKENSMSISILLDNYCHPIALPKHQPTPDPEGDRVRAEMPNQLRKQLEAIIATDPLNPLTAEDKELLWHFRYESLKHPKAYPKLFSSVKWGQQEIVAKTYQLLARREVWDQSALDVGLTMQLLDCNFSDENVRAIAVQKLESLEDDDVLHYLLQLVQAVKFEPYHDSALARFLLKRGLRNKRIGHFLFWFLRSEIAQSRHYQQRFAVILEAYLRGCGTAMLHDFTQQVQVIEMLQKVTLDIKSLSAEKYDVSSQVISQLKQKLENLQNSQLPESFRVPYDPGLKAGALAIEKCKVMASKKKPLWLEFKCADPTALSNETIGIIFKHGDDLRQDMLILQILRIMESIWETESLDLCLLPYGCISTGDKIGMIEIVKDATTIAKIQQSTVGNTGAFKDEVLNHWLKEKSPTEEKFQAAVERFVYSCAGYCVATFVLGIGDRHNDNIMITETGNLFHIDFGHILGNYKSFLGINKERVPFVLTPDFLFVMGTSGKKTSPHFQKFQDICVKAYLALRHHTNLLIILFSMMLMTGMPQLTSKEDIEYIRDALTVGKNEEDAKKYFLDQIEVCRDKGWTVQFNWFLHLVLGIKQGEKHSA
Method in brief: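 Radiometric SPA: reaction at room temperature for 120 min using 2 μM ATP with [γ-33P]ATP tracer, 20 μM PIP2 substrate and 13 nM human PI3Kγ (MOPS pH 6.7, MgCl2, DTT, CHAPS; 2% DMSO). EDTA quench with WGA beads, scintillation count, and IC50 fit of percent-of-control activity.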

[3] = target: PI3Kδ (p110δ/p85α) Recombinant Human Protein (Homo sapiens (Human), UniProt O00329); assay: PI3Kδ Scintillation Proximity Assay; format: biochemical; conditions: read-out: PI3K-delta SPA IC50
Sequence of PI3Kδ (p110δ/p85α) Recombinant Human Protein (O00329 whole entry): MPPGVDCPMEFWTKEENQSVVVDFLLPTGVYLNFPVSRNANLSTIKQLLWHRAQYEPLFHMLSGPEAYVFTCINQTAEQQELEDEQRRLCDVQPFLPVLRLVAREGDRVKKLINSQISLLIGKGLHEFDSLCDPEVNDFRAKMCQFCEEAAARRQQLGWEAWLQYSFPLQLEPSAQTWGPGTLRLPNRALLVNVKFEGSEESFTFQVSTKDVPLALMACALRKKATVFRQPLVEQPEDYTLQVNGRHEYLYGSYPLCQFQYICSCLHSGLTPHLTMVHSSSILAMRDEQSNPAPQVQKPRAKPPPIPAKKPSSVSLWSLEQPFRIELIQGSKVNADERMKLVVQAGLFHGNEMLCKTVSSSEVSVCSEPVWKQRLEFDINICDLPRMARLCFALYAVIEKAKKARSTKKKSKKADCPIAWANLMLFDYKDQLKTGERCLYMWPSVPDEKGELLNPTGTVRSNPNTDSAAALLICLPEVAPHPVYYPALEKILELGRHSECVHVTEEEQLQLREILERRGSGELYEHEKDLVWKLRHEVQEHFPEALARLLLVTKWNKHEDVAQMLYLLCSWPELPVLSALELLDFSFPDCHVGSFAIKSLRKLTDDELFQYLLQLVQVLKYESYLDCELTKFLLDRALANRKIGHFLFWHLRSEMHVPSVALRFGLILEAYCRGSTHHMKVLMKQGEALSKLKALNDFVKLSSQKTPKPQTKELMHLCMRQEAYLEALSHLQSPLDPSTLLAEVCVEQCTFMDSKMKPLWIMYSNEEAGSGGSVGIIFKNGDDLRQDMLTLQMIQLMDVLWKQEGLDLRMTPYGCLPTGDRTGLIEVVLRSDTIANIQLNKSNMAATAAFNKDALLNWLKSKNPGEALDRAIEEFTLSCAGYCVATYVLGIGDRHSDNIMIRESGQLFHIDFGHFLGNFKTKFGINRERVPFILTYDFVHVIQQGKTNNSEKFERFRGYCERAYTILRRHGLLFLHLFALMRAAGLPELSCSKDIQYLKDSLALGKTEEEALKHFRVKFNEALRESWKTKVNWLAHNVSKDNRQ
Sequence of PI3Kδ (p110δ/p85α) Recombinant Human Protein (P27986 whole entry partner): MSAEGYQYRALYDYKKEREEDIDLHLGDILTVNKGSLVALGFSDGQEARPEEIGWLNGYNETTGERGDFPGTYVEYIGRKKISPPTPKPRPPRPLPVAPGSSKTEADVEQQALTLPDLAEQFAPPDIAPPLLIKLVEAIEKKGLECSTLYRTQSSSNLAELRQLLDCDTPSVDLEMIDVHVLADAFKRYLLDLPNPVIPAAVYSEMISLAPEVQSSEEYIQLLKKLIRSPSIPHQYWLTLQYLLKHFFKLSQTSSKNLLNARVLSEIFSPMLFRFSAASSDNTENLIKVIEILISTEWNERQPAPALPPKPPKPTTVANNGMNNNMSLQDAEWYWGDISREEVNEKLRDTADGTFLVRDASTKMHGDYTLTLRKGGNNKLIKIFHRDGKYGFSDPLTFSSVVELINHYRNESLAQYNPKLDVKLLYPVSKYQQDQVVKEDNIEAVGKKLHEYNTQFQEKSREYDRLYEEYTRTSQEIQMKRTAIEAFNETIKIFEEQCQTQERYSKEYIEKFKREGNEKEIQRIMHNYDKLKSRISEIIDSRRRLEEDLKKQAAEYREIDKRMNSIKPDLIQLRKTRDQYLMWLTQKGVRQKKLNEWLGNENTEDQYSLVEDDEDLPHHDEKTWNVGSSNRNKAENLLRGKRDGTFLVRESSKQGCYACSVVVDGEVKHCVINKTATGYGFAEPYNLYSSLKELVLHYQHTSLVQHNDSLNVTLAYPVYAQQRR
Method in brief: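 Assay conditions: 2 μM ATP (radiolabelled), 20 μM PIP2, 3.4 nM PI3Kδ, 20 mM MOPS pH 6.7 with 10 mM MgCl2, 5 mM DTT, 0.03% CHAPS, 2 h at room temperature. Signal from bead-captured 33P product; IC50 versus solvent control.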

Structure (SMILES)	IC50 [1]	IC50 [2]	IC50 [3]
CCCCCNc1ncc(-c2cc(-c3cncc(OC)c3)ccn2)[nH]1 [Example 63, 5-(5-Methoxy-3,4′-bipyridin-2′-yl)-N-pentyl-1H-imidazol-2-amine trifluoroacetate salt]	> 5000 nM	≤ 500 nM	> 500 nM
Cc1cnc(-c2cc(-c3cncc(S(=O)(=O)N[C@H]4CC[C@](C)(O)CC4)c3)ccn2)[nH]1 [Example 298, N-((1r,4r)-4-Hydroxy-4-methylcyclohexyl)-2′-(4-methyl-1H-imidazol-2-yl)-[3,4′-bipyridine]-5-sulfonamide Trifluoroacetate Salt]	≤ 300 nM	≤ 50 nM	≤ 50 nM
COc1cncc(-c2ccnc(-c3ncc(C(F)(F)F)[nH]3)c2)c1 [Example 79, 5-Methoxy-2′-(5-(trifluoromethyl)-1H-imidazol-2-yl)-3,4′-bipyridine trifluoroacetate salt]	> 5000 nM	≤ 50 nM	≤ 500 nM
COc1cncc(-c2ccnc(-c3cnc(NCC4CCC4)[nH]3)c2)c1 [Example 65, N-(Cyclobutylmethyl)-5-(5-methoxy-3,4′-bipyridin-2′-yl)-1H-imidazol-2-amine trifluoroacetate salt]	> 5000 nM	≤ 500 nM	> 500 nM
CCc1cnc(-c2cc(-c3cncc(OC)c3)ccn2)[nH]1 [Example 85, 2′-(5-Ethyl-1H-imidazol-2-yl)-5-methoxy-3,4′-bipyridine trifluoroacetate salt]	> 5000 nM	≤ 500 nM	> 500 nM

Now from value to compound:

IC50 [1]	IC50 [2]	IC50 [3]	Structure (SMILES)
300 to 1000 nM	≤ 100 nM	≤ 50 nM	COC(=O)c1nc(-c2cc(-c3cncc(N4CCOCC4)c3)ccn2)[nH]c1C [Example 125, Methyl 5-methyl-2-(5-morpholin-4-yl-3,4′-bipyridin-2′-yl)-1H-imidazole-4-carboxylate]
≤ 300 nM	≤ 100 nM	≤ 100 nM	CCc1[nH]c(-c2cc(-c3cncc(N4CCOCC4)c3)ccn2)nc1C [Example 105, 4-(2′-(5-Ethyl-4-methyl-1H-imidazol-2-yl)-3,4′-bipyridin-5-yl)morpholine]
1000 to 5000 nM	≤ 100 nM	≤ 100 nM	Cc1nc(-c2cc(-c3cncc(C(=O)NCc4ccccc4)c3)ccn2)[nH]c1C [Example 192, N-Benzyl-2′-(4,5-dimethyl-1H-imidazol-2-yl)-3,4′-bipyridine-5-carboxamide trifluoroacetate salt]
≤ 300 nM	≤ 50 nM	≤ 50 nM	CCC1CCN(C(=O)c2cncc(-c3ccnc(-c4nc(C)c(C)[nH]4)c3)c2)C1 (stereo not drawn) [Example 211, 2′-(4,5-Dimethyl-1H-imidazol-2-yl)-5-[(3-ethylpyrrolidin-1-yl)carbonyl]-3,4′-bipyridine trifluoroacetate salt]
≤ 300 nM	≤ 50 nM	≤ 50 nM	Cc1nc(-c2cc(-c3cncc(C(=O)N4CCC5(CC5)C4)c3)ccn2)[nH]c1C [Example 212, 5-(5-Azaspiro[2.4]hept-5-ylcarbonyl)-2′-(4,5-dimethyl-1H-imidazol-2-yl)-3,4′-bipyridine trifluoroacetate salt]
≤ 300 nM	≤ 50 nM	≤ 50 nM	Cc1nc(-c2cc(-c3cncc(N4CCOCC4)c3)ccn2)[nH]c1C1CC1 [Example 104, 4-(2′-(5-Cyclopropyl-4-methyl-1H-imidazol-2-yl)-3,4′-bipyridin-5-yl)morpholine trifluoroacetate salt]
≤ 300 nM	≤ 50 nM	≤ 50 nM	Cc1[nH]c(-c2cc(-c3cncc(N4CCOCC4)c3)ccn2)nc1C(=O)NC(C)c1cccc(F)c1 (racemic) [Example 277, N-[1-(3-Fluorophenyl)ethyl]-5-methyl-2-(5-morpholin-4-yl-3,4′-bipyridin-2′-yl)-1H-imidazole-4-carboxamide trifluoroacetate salt]
300 to 1000 nM	≤ 50 nM	≤ 100 nM	COc1cncc(-c2ccnc(-c3nc(C)c(C)[nH]3)c2)c1 [Example 76, 2′-(4,5-Dimethyl-1H-imidazol-2-yl)-5-methoxy-3,4′-bipyridine]
